Where “and” joins values, the source holds several entries; their conditions need not be identical. Equal values may be shown once. Read-outs that look alike come from different tables or passages of the source.
Experiments:
Campylobacter jejuni = experiment: Bactericidal effect in Bolton Broth at different pH; assay type: cell-based; conditions: sodium salt used; 0, 10, 20 mM in Bolton Broth; pH 5.6, 7.2, 8.2
Procedure: The bactericidal effect of 2-nitroethane against Campylobacter jejuni was examined in vitro following substantially the same assay as described in the first experiment of Example 1 except Bolton Broth was utilized rather than TSB. In this experiment nitroethane was added to the Bolton Broth medium in amounts to give 0, 10, and 20 mM final concentrations, and trials were conducted in the media at different pH (5.6, 7.2, and 8.2).
Because 2-nitroethane is somewhat volatile, the sodium salt of the compound was prepared and used in this experiment. The salt was prepared using the process described by Majak et al. (1986, J. Anim. Sci., 62:1072–1080, the contents of which are incorporated by reference herein).

S. Typhimurium [1] = experiment: Specific growth rate in tryptic soy broth (A600); assay type: cell-based, Salmonella Typhimurium
Procedure: (§1) The bactericidal effect of 2-nitropropanol and nitroethanol were examined in vitro on several pathogenic bacteria including Salmonella Typhimurium, Escherichia coli O157:H7, Campylobacter jejuni, and Enterococcus faecalis. For an initial in vitro study 2-nitropropanol or nitroethanol were added to tryptic soy broth (TSB) medium in amounts to give 0, 2.5, 5, and 10 mM final concentration. Cultures were inoculated in TSB and incubated at 37° C. Specific growth rates (h^−1) were calculated by measuring optical density (A600) with spectrophotometer.

E. coli O157:H7 = experiment: Specific growth rate in tryptic soy broth (A600); assay type: cell-based, Escherichia coli O157:H7; conditions: 2.5 mM and higher concentrations in TSB, 37° C.
Procedure: as §1

Salmonella Typhimurium [2] = assay type: in vivo, broiler chicks; conditions: oral gavage, 24 h, Experiment 1
Procedure: The bactericidal effect of 2-nitropropanol on Salmonella typhimurium was determined in vivo. The in vivo study was conducted using 7-day-old chick experimentally infected with S. Typhimurium. In experiment 1, chicks were orally challenged with 10^6 cfu of NN-resistant strain of S. Typhimurium. Chicks were divided into four groups; control, 1 (13 mg 2-nitropropanol/bird), 5 (65 mg 2-nitropropanol/bird) and 10×(130 mg 2-nitropropanol/bird). Treatments were administered via oral gavage. After 24 h, cecal contents were aseptically removed and subjected to bacterial analysis.

C. jejuni = experiment: Bactericidal effect in Campylobacter enrichment broth, direct plating and enrichment; assay type: cell-based, Campylobacter jejuni; conditions: 48 h, pH 5.6 and 7.0, 42° C.
Procedure: The bactericidal effect against C. jejuni was also determined in vitro. Cultures were inoculated into Campylobacter enrichment broth containing 2-nitropropanol at 0, 5, 10, and 20 mM of final and incubated at 42° C.

Listeria monocytogenes = experiment: Bactericidal effect in Tryptic Soy Broth at different pH; assay type: cell-based; conditions: pH 5.6, 7.2, 8.2, 37° C.
Procedure: The bactericidal effect of 2-nitropropanol against Listeria monocytogenes was examined in vitro following the same assay as described in the first and second experiments of Example 1. Trials were conducted in the media at different pH (5.6, 7.2, and 8.2).

S. Typhimurium [3] = assay type: cell-based, Salmonella Typhimurium; conditions: 10 mM
Procedure: Another experiment was conducted to evaluate the bactericidal effect of 2-nitropropanol against S. Typhimurium in buffered rumen and fecal fluid containing viable populations of endogenous anaerobes. Briefly, ruminal contents and feces were retrieved and strained. Both collected fluids were transferred to laboratory and mixed with anoxic phosphate buffer (pH 6.8). Antibiotic-marked (25 μg novobiocin/ml and 20 μg/ml of nalidixic acid resistant) (NN)S. Typhimurium cultures were inoculated into these mixtures supplemented with 2-nitropropanol at various concentrations (0, 2.5, and 10 mM of final). Those inoculated tubes were incubated at 37° C. and populations were monitored at different sampling time (0, 3, 6, and 24 h) by direct plating onto brilliant green agar (BGA) containing NN.

S. Typhimurium [4] = experiment: pH effect: populations (CFU/ml) in TSB adjusted to different pH, enumerated on TSA; assay type: cell-based, Salmonella Typhimurium; conditions: 37° C.
Procedure: In order to observe the pH effect on this 2-nitropropanol, S. Typhimurium was inoculated into TSB medium adjusted to different pH (5.6, 7.2, and 8.0) with 2-nitropropanol (0, 2.5, and 10 mM final concentration) and incubated at 37° C. Populations of S. Typhimurium were determined (CFU/ml) by enumerating on tryptic soy agar (TSA) at 3, 6, and 24 h. […] However, S. Typhimurium was totally inactivated (more than 5 log reductions) at 10 mM 2-nitropropanol regardless of pH (FIG. 2).

E. faecalis = experiment: Specific growth rate in tryptic soy broth (A600); assay type: cell-based, Enterococcus faecalis; conditions: 10 mM in TSB, 37° C.
Procedure: as §1

Salmonella Typhimurium [5] = experiment: Cecal populations in experimentally challenged broiler chicks, experiment 2; assay type: in vivo; conditions: oral gavage
Procedure: Significant (P<0.05) log reductions occurred in group administered 1×(13 mg/bird) dose for both 24 and 48 h duration compared to untreated control.

## CC[N+](=O)[O-] [2-nitroethane]
Campylobacter jejuni
  pH dependence of bactericidal effect against Campylobacter jejuni: increased at alkaline pH

## O=[N+]([O-])CCO [2-nitroethanol]
S. Typhimurium [1]
  growth of S. Typhimurium (specific growth rate): largely prohibited
E. coli O157:H7
  growth of E. coli O157:H7 (specific growth rate): largely prohibited

## CC(CO)[N+](=O)[O-] (stereo not shown) [2-nitropropanol]
Salmonella Typhimurium [2]; 1× = 13 mg per bird
  Mean log CFU/g of cecal content (standard deviation): 3.65±2.01 log CFU/g and 3.65 (2.01) B log CFU/g
Salmonella Typhimurium [2]; 5× = 65 mg per bird
  Mean log CFU/g of cecal content (standard deviation): 3.39±2.42 log CFU/g and 3.39 (2.42) B log CFU/g
Salmonella Typhimurium [2]; 10× = 130 mg per bird
  Mean log CFU/g of cecal content (standard deviation): 3.47 ± 1.55 log CFU/g and 3.46 (1.55) B log CFU/g
C. jejuni; 10 mM
  inactivation of C. jejuni cultures: completely inactivated
C. jejuni; 20 mM
  inactivation of C. jejuni cultures: completely inactivated
Listeria monocytogenes
  pH dependence of bactericidal effect against Listeria monocytogenes: enhanced in an acidic or alkaline environment, but is somewhat reduced at neutral pH
S. Typhimurium [3]; fecal fluid in anoxic phosphate buffer pH 6.8, 37° C.
  reductions of Salmonella populations compared to controls: 2–3 log
S. Typhimurium [3]; ruminal fluid in anoxic phosphate buffer pH 6.8, 37° C.
  reductions of Salmonella populations compared to controls: 2–3 log
S. Typhimurium [4]; 2.5 mM, pH 5.6, after 24 h
  reduction of S. Typhimurium cells: approximately 3 log
S. Typhimurium [4]; 10 mM, regardless of pH (5.6, 7.2, 8.0)
  reduction of S. Typhimurium cells (totally inactivated): more than 5 log
S. Typhimurium [1]; 2.5 mM and higher concentrations in TSB, 37° C.
  growth of S. Typhimurium (specific growth rate): largely prohibited
E. faecalis
  growth of E. faecalis (specific growth rate): markedly inhibited
Salmonella Typhimurium [5]; 0.5× = 6.5 mg per bird, 24 h
  Salmonella Typhimurium, Mean log CFU/g of cecal content (standard deviation): 4.19 (2.53) A log CFU/g
Salmonella Typhimurium [5]; 0.5× = 6.5 mg per bird, 48 h
  Salmonella Typhimurium, Mean log CFU/g of cecal content (standard deviation): 3.84 (2.69) AB log CFU/g
Salmonella Typhimurium [5]; 0.5× = 6.5 mg per bird, Combined 24 and 48 h
  Salmonella Typhimurium, Mean log CFU/g of cecal content (standard deviation): 4.01 (2.59) A log CFU/g
Salmonella Typhimurium [5]; 1× = 13 mg per bird, 24 h
  Salmonella Typhimurium, Mean log CFU/g of cecal content (standard deviation): 2.58 (2.10) B log CFU/g
Salmonella Typhimurium [5]; 1× = 13 mg per bird, 48 h
  Salmonella Typhimurium, Mean log CFU/g of cecal content (standard deviation): 2.88 (2.78) B log CFU/g
Salmonella Typhimurium [5]; 1× = 13 mg per bird, Combined 24 and 48 h
  Salmonella Typhimurium, Mean log CFU/g of cecal content (standard deviation): 2.73±2.45 log CFU/g and 2.73 (2.45) B log CFU/g
E. coli O157:H7
  growth of E. coli O157:H7 (specific growth rate): largely prohibited

— patent US7176244B1, “Use of 2-nitropropanol, 2-nitroethane, and 2-nitroethanol for control of microbial pathogens” (The United States of America as represented by the …, priority 2002, dated 2007)
